Source: US10174000B2, “Bicyclic-fused heteroaryl or aryl compounds as IRAK4 modulators” (PFIZER INC., priority 2015, dated 2019)

Experiments:
[1] = target: inactive, unphosphorylated (0-phos), human IRAK4 FL (Full Length) (Homo sapiens (Human), UniProt Q9NWZ3); experiment: IRAK4 Enzymatic DELFIA Assay, Protocol B; type: biochemical; conditions: 600 μM ATP (KM), full-length recombinant human IRAK4
Protocol: IRAK4 Enzymatic DELFIA Assay, Protocol B.
The test compound is solubilized in DMSO to a stock concentration of 30 mM. The dose response plates were prepared with a 4 mM primary compound concentration, serialized in DMSO and spotted (1 μL) into 384-well polypropylene plates as before.
20 uL of 20 mM HEPES pH=7.5, 5 mM MgCl2, 0.0025% Brij-35, 600 μM ATP, and 100 nM ERM-biotinylated peptide (AGAGRDKYKTLRQIR) was added to start the reaction, which was run for 90 minutes at RT and stopped by the addition of 20 μL 0.3M EDTA.
(§1) 50 μL of the reaction mixture was transferred to a streptavidin-coated detection plate (DELFIA streptavidin coated plates, 384-well, white plates, Perkin-Elmer Life Sciences) and incubated for 30 minutes at RT. The plates were washed 4× with 75 μL per well of PBS containing 0.05% Tween-20. Plates were then incubated with 50 μL per well of antibody cocktail of Anti-pERM antibody at 0.125 μg/mL (Cell Signaling Technology), plus Anti-Rabbit IgG EuN1 at 0.25 μg/ml (Perkin-Elmer Life Sciences) in a solution of 10 mM MOPS pH=7.5, 150 mM NaCl, 0.05% Tween-20, 0.02% NaN3, 1% BSA, 0.1% Gelatin for 45 minutes. The plates were then washed as before. 50 μL per well of DELFIA Enhancement Solution (Perkin-Elmer Life Sciences) was added to the plate and incubated for 15 minutes at RT prior to being read on an Envision Model 2104 multi-label reader using a 340 nm excitation wavelength and a […] emission wavelength for detection.

[2] = target: human IRAK4 FL (Full Length), phosphorylated (Homo sapiens (Human), UniProt Q9NWZ3); experiment: IRAK4 Enzymatic DELFIA Assay, Protocol A; type: biochemical; conditions: 600 μM ATP (KM); full-length phosphorylated recombinant human IRAK4
Protocol: IRAK4 Enzymatic DELFIA Assay, Protocol A.
This is an in vitro assay to measure IRAK4 enzymatic activity utilizing the DELFIA (Dissociation-Enhanced Lanthanide Fluorescent Immunoassay, Perkin-Elmer) platform, with the human IRAK4 FL (Full Length) construct to characterize IRAK4 inhibitor and control compounds at 600 μM ATP (KM). The final amount of enzyme in the assay is 0.1 nM IRAK4 FL, final concentration of substrate is 50 nM, and final concentration of DMSO is 2.5%.
The test compound was solubilized in DMSO to a stock concentration of 30 mM. The dose response plates were prepared with a 4 mM primary compound concentration (40-fold multiple of the final in-assay concentration), and diluted in DMSO in a four-fold series for a total of 11 data points. 1 μL of the compound dilution plate is spotted into ultra-clear polypropylene, 384-well, U-bottom plates (Corning Life Sciences).
To begin the assay, 19 μL of reaction mixture containing 20 mM HEPES pH=7.5, 5 mM MgCl2, 0.0025% Brij-35, 600 μM ATP, 0.21 nM Full-length phosphorylated recombinant human IRAK4 (GenBank ID AF445802) are aliquoted into the polypropylene, 384-well, U-bottom plates containing 1 μL of test compound, mixed briefly and incubated for 20 minutes at room temperature (RT). Then, 20 μL of 20 mM HEPES pH=7.5, 5 mM MgCl2, 0.0025% Brij-35, 600 μM ATP, and 100 nM ERM-biotinylated peptide (AGAGRDKYKTLRQIR) is added to start the reaction. The reaction is incubated for 60 minutes at RT and stopped by the addition of 20 μL 0.3M EDTA.
as §1

Chain of inactive, unphosphorylated (0-phos), human IRAK4 FL (Full Length) (Q9NWZ3 whole entry): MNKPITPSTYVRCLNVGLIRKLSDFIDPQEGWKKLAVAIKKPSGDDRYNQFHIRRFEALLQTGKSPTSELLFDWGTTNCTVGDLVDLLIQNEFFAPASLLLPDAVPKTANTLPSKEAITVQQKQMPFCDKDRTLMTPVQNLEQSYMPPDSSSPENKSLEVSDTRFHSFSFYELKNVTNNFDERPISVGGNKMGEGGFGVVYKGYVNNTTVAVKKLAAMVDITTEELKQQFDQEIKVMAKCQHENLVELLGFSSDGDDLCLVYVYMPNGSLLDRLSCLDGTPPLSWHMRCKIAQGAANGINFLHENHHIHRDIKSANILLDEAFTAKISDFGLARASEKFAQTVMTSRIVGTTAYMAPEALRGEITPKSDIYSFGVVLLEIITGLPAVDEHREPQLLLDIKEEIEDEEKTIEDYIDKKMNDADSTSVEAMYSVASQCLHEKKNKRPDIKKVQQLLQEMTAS
Chain of human IRAK4 FL (Full Length), phosphorylated (Q9NWZ3 whole entry): as above

| IC50 [1] | IC50 [2] | SMILES |
| --- | --- | --- |
| 1300 nM | > 100000 nM | CC[C@@H]1CC(=O)N[C@@H]1COc1ncc(NS(=O)(=O)c2cccnc2)c2cc(C(N)=O)c(OC(C)C)cc12 [Example 11, 1-{[(2S,3R)-3-Ethyl-5-oxopyrrolidin-2-yl]methoxy}-7-(propan-2-yloxy)-4-[(pyridin-3-ylsulfonyl)amino]isoquinoline-6-carboxamide] |
| 21 nM | 38.5 nM | COc1cc2c(OC[C@H]3NC(=O)[C@H](F)C34CC4)nccc2cc1C(N)=O [Example 21, 1-(((4S,7R)-7-fluoro-6-oxo-5-azaspiro[2.4]heptan-4-yl)methoxy)-7-methoxyisoquinoline-6-carboxamide] |
| 4.3 nM | 89 nM | Cc1cnc(-c2cnc(OC[C@@H]3CCC(=O)N3)c3cc(OC(C)C)c(C(N)=O)cc23)o1 [Example 9, 4-(5-Methyl-1,3-oxazol-2-yl)-1-{[(2S)-5-oxopyrrolidin-2-yl]methoxy}-7-(propan-2-yloxy)isoquinoline-6-carboxamide] |
| 110 nM | 1450 nM | COc1cc2c(OC[C@@H]3NC(=O)[C@H](F)C34CC4)nccc2cc1C(N)=O [Example 23, 1-(((4R,7R)-7-fluoro-6-oxo-5-azaspiro[2.4]heptan-4-yl)methoxy)-7-methoxyisoquinoline-6-carboxamide] |
| 230 nM | 2900 nM | Cc1c[nH]c(-c2cnc(OC[C@@H]3CCC(=O)N3)c3cc(OC(C)C)c(C(N)=O)cc23)n1 [Example 3, 4-(4-Methyl-1H-imidazol-2-yl)-1-{[(2S)-5-oxopyrrolidin-2-yl]methoxy}-7-(propan-2-yloxy)isoquinoline-6-carboxamide] |
| 350 nM | 4200 nM | COc1cc2c(OCC34CC3CC(=O)N4)nccc2cc1C(N)=O (racemic) [Example 29, 7-methoxy-1-[(3-oxo-2-azabicyclo[3.1.0]hex-1-yl)methoxy]isoquinoline-6-carboxamide] |
| 3 nM | 227 nM | Cc1coc(-c2cnc(OC[C@@H]3CCC(=O)N3)c3cc(OC(C)C)c(C(N)=O)cc23)n1 [Example 6, 4-(4-Methyl-1,3-oxazol-2-yl)-1-{[(2S)-5-oxopyrrolidin-2-yl]methoxy}-7-(propan-2-yloxy)isoquinoline-6-carboxamide] |
| 4.5 nM | 27 nM | CC[C@@H]1[C@H](F)C(=O)N[C@@H]1COc1nccc2nc(C(N)=O)c(OC)cc12 [Example 32, 5-{[(2S,3S,4S)-3-ethyl-4-fluoro-5-oxopyrrolidin-2-yl]methoxy}-3-methoxy-1,6-naphthyridine-2-carboxamide] |
| 12000 nM | > 100000 nM | CC[C@@H]1CC(=O)N[C@@H]1COc1ncc(NS(=O)(=O)c2cn(C)cn2)c2cc(C(N)=O)c(OC(C)C)cc12 [Example 13, 1-{[(2S,3R)-3-Ethyl-5-oxopyrrolidin-2-yl]methoxy}-4-{[(1-methyl-1H-imidazol-4-yl)sulfonyl]amino}-7-(propan-2-yloxy)isoquinoline-6-carboxamide] |
